{"source": "patent US20230287066A1", "about": "“MATERIALS AND METHODS FOR MAKING SEXUAL STAGE […]” (The Penn State Research Foundation, priority 2020, published 2023)", "key": {"[1]": {"tested_on": "P. falciparum expressing a regulatable AP2-G polypeptide and having a reduced level of histone modification at the 3′ pairing element of the pfap2-g locus", "assay": "Gametocytogenesis (percentage sexual conversion) of engineered parasites treated with Shld1", "format": "cell-based, Plasmodium falciparum", "settings": "in the presence of a Shld1 molecule; 3′ pairing element mutant AP2-G-HA-FKBP parasites", "description": "The number of gametocytes was determined by splitting the culture in two and treating half with Shld1 and half with the same volume of the vehicle (Day 1). The parental cell line (AP2-G-HA-FKBP) and the pairing element mutant were tested in parallel. After 48 hours (on Day 3), the number of parasites present was counted by microscopy and N-acetylglucosamine was added to all cultures to specifically kill asexual parasites. On Day 9, when gametocytes developed enough that they were readily distinguished from asexual stage parasites by morphology, the number of gametocytes were counted by microscopy. Percentage sexual conversion was calculated by dividing this by the proportion of parasite-infected red blood cells on Day 3."}, "[2]": {"tested_on": "AP2-G-HA-FKBP polypeptide", "assay": "Conditional knockdown of PfAP2-G fused to FKBP destabilization domain", "format": "cell-based, Plasmodium falciparum", "settings": "in the presence of Shld1; AP2-G-HA-FKBP parasites (FIG. 1)", "text": "A regulatable knockdown of PfAP2-G was generated by engineering a transgenic line with AP2-G fused to an FKBP destabilization domain (DD) as described elsewhere (see, e.g., Kafsack et al., Nature, 507(7491):248-52 (2014)). Briefly, a construct encoding an AP2-G polypeptide fused to an HA-tag and an FKBP DD (e.g., an AP2-G-HA-FKBP polypeptide) was stably integrated into the genome of Plasmodium falciparum lines.\nIn the absence of the ligand Shield-1 (Shld1), the FKBP destabilization domain was unstable and targets fusion proteins for proteolytic degradation."}}, "data": [{"smiles": "CC[C@H](C(=O)N1CCCC[C@H]1C(=O)O[C@H](CCc1ccc(OC)c(OC)c1)c1cccc(OCCN2CCOCC2)c1)c1cc(OC)c(OC)c(OC)c1", "note": "[Shld1]", "values": [{"measurement": "P. falciparum that commit to gametocytogenesis and form sexual stage parasites", "setting": "[1]", "result": "over 60%"}, {"measurement": "stabilization of FKBP destabilization domain / gametocyte production", "setting": "[2]", "result": "gametocytes were produced"}]}]}
